Experimental data taken from PMC4177760, “Cytotoxicity of four Aframomum species (A. arundinaceum, A. alboviolaceum, A. kayserianum and A. polyanthum) towards multi-factorial drug resistant cancer cell lines” (BMC Complementary and Alternative Medicine, 2014).
Like-named read-outs stand apart in the source and are kept apart here.

How the values were obtained:
[1] = test system: drug-sensitive CCRF-CEM leukemia cells; assay: Resazurin reduction assay, CCRF-CEM; format: cell-based, human
Method: (§1) The cell lines used the present work, their origins and their treatments were previously reported. They include drug-sensitive CCRF-CEM and multidrug-resistant P-glycoprotein over-expressing CEM/ADR5000 leukemia cells, the MDA-MB-231-pcDNA3 breast cancer cells and its resistant subline MDA-MB-231-BCRP clone 23), the HCT116 (p53^+/+) colon cancer cells and its knockout clones HCT116 (p53^-/-), the U87MG glioblastoma cells and its resistant subline U87MG.ΔEGFR, HepG2 hepatocarcinoma cells and AML12 normal hepatocytes. The CCRF-CEM and CEM/ADR5000 leukemia cells were maintained in RPMI 1640 medium (Invitrogen) supplemented with 10% fetal calf serum in a humidified 5% CO2 atmosphere at 37°C. Sensitive and resistant cells were kindly provided by Dr. Axel Sauerbrey (Department of Pediatrics, University of Jena, Jena, Germany). The generation of the resistant subline was previously described. Breast cancer cells, transduced with control vector (MDA-MB-231-pcDNA3) or with cDNA for the breast cancer resistance protein BCRP (MDA-MB-231-BCRP clone 23), were maintained under standard conditions as described above for CCRF-CEM cells. Human wild-type HCT116 (p53^+/+) colon cancer cells as well as knockout clones HCT116 (p53^-/-) derived by homologous recombination were a generous gift from Dr. B. Vogelstein and H. Hermeking (Howard Hughes Medical Institute, Baltimore, MD). Human glioblastoma multiforme U87MG cells (non-transduced) and U87MG cell line transduced with an expression vector harboring an epidermal growth factor receptor (EGFR) gene with a genomic deletion of exons 2 through 7 (U87MG.ΔEGFR) were kindly provided by Dr. W. K. Cavenee (Ludwig Institute for Cancer Research, San Diego, CA). MDA-MB-231-BCRP, U87MG.ΔEGFR and HCT116 (p53^-/-) were maintained in DMEM medium containing 10% FBS (Invitrogen) and 1% penicillin (100 U/mL)-streptomycin (100 μg/mL) (Invitrogen) and were continuously treated with 800 ng/mL and 400 μg/mL geneticin, respectively. Human HepG2 hepatocellular carcinoma cells and normal AML12 heptocytes were obtained from the American Type Culture Collection (ATCC, USA). The above medium without geneticin was used to maintain MDA-MB-231, U87MG, HCT116 (p53^+/+), HepG2 and AML12 cell lines. The cells were passaged twice weekly. All experiments were performed with cells in the logarithmic growth phase.
(§2) The cytotoxicity of the studied samples was performed by resazurin reduction assay as we previously described. Briefly, adherent cells at 1x10^4 cells were allowed to attach overnight and then treated with different studied samples. […] For suspension cells, aliquots of 2 × 10^4 cells per well were seeded in 96-well-plates in a final volume of 200 μL. […] The tested concentrations ranges were 0.16 μg/mL to 40 μg/mL for crude extracts and isolated compounds and 0.08 μg/mL to 20 μg/mL for doxorubicin. After 72 h incubation and a resazurin (Sigma-Aldrich, Schnelldorf, Germany) staining, fluorescence was measured on an Infinite M2000 Pro™ plate reader (Tecan, Crailsheim, Germany) using an excitation wavelength of 544 nm and an emission wavelength of 590 nm. Each assay was done at least two times, with six replicates each. IC50 values represent the sample’s concentrations required to inhibit 50% of cell proliferation and were calculated from a calibration curve by linear regression using Microsoft Excel.

[2] = test system: multidrug-resistant P-glycoprotein over-expressing CEM/ADR5000 leukemia cells; assay: Resazurin reduction assay, CEM/ADR5000; format: cell-based, human; conditions: for IC50: CEM/ADR5000, 72 h; for degree of resistance: IC50 CEM/ADR5000 divided by IC50 CCRF-CEM
Method: as §1, §2

U87MG glioblastoma cells = assay: Resazurin reduction assay, U87MG; format: cell-based, human; conditions: 72 h
Method: as §1, §2

[3] = test system: MDA-MB-231-BCRP clone 23 breast cancer cells; assay: Resazurin reduction assay, MDA-MB-231-BCRP; format: cell-based; conditions: for degree of resistance: IC50 MDA-MB-231-BCRP divided by IC50 MDA-MB-231; for IC50: 72 h
Method: as §1, §2

[4] = test system: MDA-MB-231-pcDNA3 breast cancer cells; assay: Resazurin reduction assay, MDA-MB-231; format: cell-based; conditions: MDA-MB-231, 72 h
Method: as §1, §2

[5] = test system: HCT116 (p53+/+) colon cancer cells; assay: Resazurin reduction assay, HCT116 p53+/+; format: cell-based, human
Method: as §1, §2

AML12 normal hepatocytes = assay: Resazurin reduction assay, AML12; format: cell-based; conditions: 72 h
Method: as §1, §2

[6] = test system: HCT116 (p53-/-) colon cancer cells; assay: Resazurin reduction assay, HCT116 p53-/-; format: cell-based, human; conditions: for IC50: HCT116 p53-/-, 72 h; for degree of resistance: IC50 HCT116 p53-/- divided by IC50 HCT116 p53+/+
Method: as §1, §2

[7] = test system: U87MG.ΔEGFR glioblastoma cells; assay: Resazurin reduction assay, U87MG.ΔEGFR; format: cell-based, human; conditions: for IC50: U87MG.ΔEGFR, 72 h; for degree of resistance: IC50 U87MG.ΔEGFR divided by IC50 U87MG
Method: as §1, §2

[8] = test system: HepG2 hepatocarcinoma cells; assay: Resazurin reduction assay, HepG2; format: cell-based, human; conditions: HepG2, 72 h
Method: as §1, §2

[9] = test system: nine cancer cell lines, sensitive and MDR phenotypes; assay: Resazurin reduction assay, all tested cancer cell lines; format: cell-based; conditions: read-out: IC50 values on all tested cancer cell lines
Method: The cell lines used the present work, their origins and their treatments were previously reported. They include drug-sensitive CCRF-CEM and multidrug-resistant P-glycoprotein over-expressing CEM/ADR5000 leukemia cells, the MDA-MB-231-pcDNA3 breast cancer cells and its resistant subline MDA-MB-231-BCRP clone 23), the HCT116 (p53^+/+) colon cancer cells and its knockout clones HCT116 (p53^-/-), the U87MG glioblastoma cells and its resistant subline U87MG.ΔEGFR, HepG2 hepatocarcinoma cells and AML12 normal hepatocytes. The CCRF-CEM and CEM/ADR5000 leukemia cells were maintained in RPMI 1640 medium (Invitrogen) supplemented with 10% fetal calf serum in a humidified 5% CO2 atmosphere at 37°C. Sensitive and resistant cells were kindly provided by Dr. Axel Sauerbrey (Department of Pediatrics, University of Jena, Jena, Germany). The generation of the resistant subline was previously described. […]
The cytotoxicity of the studied samples was performed by resazurin reduction assay as we previously described. […] After 72 h incubation and a resazurin (Sigma-Aldrich, Schnelldorf, Germany) staining, fluorescence was measured on an Infinite M2000 Pro™ plate reader (Tecan, Crailsheim, Germany) using an excitation wavelength of 544 nm and an emission wavelength of 590 nm. […]

[10] = test system: human promyeloleukemia cell line HL-60; set-up: method as in PMID 14505793, PMID 12832847, PMID 16310358; conditions: HL-60, via a transient induction of caspase-3/CPP32 activity; cited from earlier work
[11] = single concentration 40 μg/mL, 72 h, preliminary test
[12] = Homo sapiens, U-87 MG, read-out: IC50
[13] = Homo sapiens, CCRF-CEM, 72 h; read-out: IC50
[14] = Homo sapiens, HCT-116, 72 h, read-out: IC50
[15] = Homo sapiens, HCT-116, read-out: IC50
[16] = MDA-MB-231-BCRP, read-out: IC50

Molecule: CC1(C)CCC[C@@]2(C)[C@H]1CC[C@@]1(CO1)[C@@H]2C/C=C(/C=O)CC=O [Compound 1, aframodial]
- Growth percentage (growth proliferation) of CCRF-CEM cells [1, 11]: more than 50%

Molecule: COc1ccc(-c2oc3cc(OC)cc(O)c3c(=O)c2OC)cc1 [Compound 9, kaempferol-3,7,4’-trimethylether]
- IC50 ([2]; Homo sapiens, read-out: IC50): 18.2 ± 1.18 µg/mL
- degree of resistance [2]: 0.99
- IC50 (U87MG glioblastoma cells; [12]): > 40 µg/mL
- degree of resistance [3]: < 0.83
- IC50 ([3]; MDA-MB-231/BCRP): 33.1 ± 2.64 µg/mL
- IC50 [1, 13]: 18.4 ± 2.04 µg/mL
- Growth percentage (growth proliferation) of CCRF-CEM cells [1, 11]: 39.58%
- IC50 ([4]; Homo sapiens, read-out: IC50): > 40 µg/mL
- IC50 [5, 14]: > 40 µg/mL
- IC50 (AML12 normal hepatocytes; Mus musculus, read-out: IC50): > 40 µg/mL
- IC50 [6, 15]: 36.7 ± 2.31 µg/mL
- IC50 ([7]; Homo sapiens, read-out: IC50): > 40 µg/mL
- IC50 ([8]; Homo sapiens, read-out: IC50): > 40 µg/mL

Molecule: C=C1CCC2C(C)(C)CCCC2(C)C1CC=C(C=O)CC=O (stereo not drawn) [Compound 2, 8(17),12-labdadien-15,16-dial]
- Growth percentage (growth proliferation) of CCRF-CEM cells [1, 11]: more than 50%

Molecule: COc1cccc2c1C(=O)c1c(O)c3c(c(O)c1C2=O)C[C@@](O)(C(=O)CO)C[C@@H]3O[C@H]1C[C@H](N)[C@H](O)[C@H](C)O1 [Doxorubucin, Doxorubicin, reference compound]
- IC50 ([2]; Homo sapiens, read-out: IC50): > 20 µg/mL
- degree of resistance [2]: 1772
- IC50 (U87MG glioblastoma cells; [12]): 1.06 ± 0.03 µg/mL
- degree of resistance [3]: 7.11
- IC50 [3, 16]: 7.83 ± 0.01 µg/mL
- IC50 ([9]; all nine tested cancer cell lines): < 40 µg/mL
- IC50 [1, 13]: 0.11 ± 0.01 µg/mL
- IC50 ([4]; Homo sapiens, read-out: IC50): 1.1 ± 0.01 µg/mL
- IC50 [5, 14]: 1.43 ± 0.02 µg/mL
- IC50 (AML12 normal hepatocytes; Mus musculus, read-out: IC50): > 40 µg/mL
- IC50 [6, 15]: 4.06 ± 0.04 µg/mL
- degree of resistance [6]: 2.84
- IC50 ([7]; Homo sapiens, read-out: IC50): 6.11 ± 0.04 µg/mL
- degree of resistance [7]: 5.76
- IC50 ([8]; Homo sapiens, read-out: IC50): 1.41 ± 0.12 µg/mL

Molecule: CC1=CC(O)C(C(C)C)CC1O (stereo not drawn) [Compound 6, 1-p-menthene-3,6-diol]
- Growth percentage (growth proliferation) of CCRF-CEM cells [1, 11]: more than 50%

Molecule: CC1(C)CCCC2(C)C1CCC1(C=O)C(O)CC(C=O)=CCC21 (stereo not drawn) [Compound 5, galanal B]
- IC50 [2]: - ((-): >40 μg/mL)
- degree of resistance [2]: > 2.02
- IC50 (U87MG glioblastoma cells): - ((-): >40 μg/mL)
- IC50 ([3]; MDA-MB-231-BCRP): - ((-): >40 μg/mL)
- IC50 ([1]; CCRF-CEM, 72 h): 19.81 ± 2.01 µg/mL
- Growth percentage (growth proliferation) of CCRF-CEM cells [1, 11]: 49.81%
- IC50 [4]: - ((-): >40 μg/mL)
- IC50 ([5]; 72 h): - ((-): >40 μg/mL)
- IC50 (AML12 normal hepatocytes): - ((-): >40 μg/mL)
- IC50 [6]: - ((-): >40 μg/mL)
- IC50 [7]: - ((-): >40 μg/mL)
- IC50 [8]: - ((-): >40 μg/mL)

Molecule: O=C1C[C@@H](c2ccc(O)cc2)Oc2cc(O)cc(O)c21 [Compound 8, naringenin]
- IC50 ([2]; Homo sapiens, read-out: IC50): 7.86 ± 0.74 µg/mL
- degree of resistance [2]: 0.64
- IC50 (U87MG glioblastoma cells; [12]): 29.8 ± 1.88 µg/mL
- degree of resistance [3]: 1.91
- IC50 [3, 16]: 18.1 ± 2.01 µg/mL
- IC50 [9]: < 40 µg/mL
- IC50 [1, 13]: 12.2 ± 1.87 µg/mL
- Growth percentage (growth proliferation) of CCRF-CEM cells [1, 11]: 38.49%
- IC50 ([4]; Homo sapiens, read-out: IC50): 9.51 ± 1.03 µg/mL
- IC50 [5, 14]: 13.7 ± 1.11 µg/mL
- apoptosis induction [10]: induced apoptosis
- IC50 (AML12 normal hepatocytes; Mus musculus, read-out: IC50): > 40 µg/mL
- IC50 [6, 15]: 13.9 ± 0.94 µg/mL
- degree of resistance [6]: 1.02
- IC50 ([7]; Homo sapiens, read-out: IC50): 18 ± 1.34 µg/mL
- degree of resistance [7]: 0.60
- IC50 ([8]; Homo sapiens, read-out: IC50): 23.5 ± 1.95 µg/mL

Molecule: CC1(C)CCCC2(C)C1CCC1(C=O)C(O)CC(C=O)=CCC21 (stereo not drawn) [Compound 4, galanal A]
- IC50 ([2]; Homo sapiens, read-out: IC50): > 40 µg/mL
- degree of resistance [2]: > 2.31
- IC50 (U87MG glioblastoma cells; [12]): > 40 µg/mL
- degree of resistance [3]: < 0.70
- IC50 ([3]; MDA-MB-231/BCRP, MDA-MB-231-BCRP, read-out: IC50): 28 ± 2.39 µg/mL
- IC50 ([1]; Homo sapiens, CCRF-CEM, 72 h, CCRF-CEM, read-out: IC50): 17.3 ± 1.96 µg/mL
- Growth percentage (growth proliferation) of CCRF-CEM cells [1, 11]: 47.78%
- IC50 ([4]; Homo sapiens, read-out: IC50): > 40 µg/mL
- IC50 [5, 14]: > 40 µg/mL
- IC50 (AML12 normal hepatocytes; Mus musculus, read-out: IC50): > 40 µg/mL
- IC50 [6, 15]: > 40 µg/mL
- IC50 ([7]; Homo sapiens, read-out: IC50): > 40 µg/mL
- IC50 ([8]; Homo sapiens, read-out: IC50): > 40 µg/mL

Molecule: 1,4-dihydroxybenzene [Compound 7]
- Growth percentage (growth proliferation) of CCRF-CEM cells [1, 11]: more than 50%

Molecule: CC1(C)CCCC2(C)C1CCC1(CO1)C2CC=C1CCOC1=O (stereo not drawn) [Compound 3, galanolactone]
- Growth percentage (growth proliferation) of CCRF-CEM cells [1, 11]: more than 50%
